Measured values published in US20250388571A1, “AMP-ACTIVATED PROTEIN KINASE MODULATOR COMPOUNDS AND USES THEREOF” (Biolexis Therapeutics, Inc., priority 2024, published 2025).
“Also recorded” adds a separate entry of the source. Read-outs that look alike come from different tables or passages of the source.

Legend:
[1] = system: human hepatocytes-THLE-2 cells; assay: Glucose uptake assay, THLE-2 cells; assay type: cell-based
Experimental: FIGS. 13-16 show results for glucose update assays in THLE-2 cells (ATCC, cat. No. CRL-2706) when treated with compound I-11 (FIG. 13), compound I-7 (FIG. 14), MK-8722 (FIG. 15), and PF-06409577 (FIG. 16). The THLE-2 cells were starved for 3 hours in high glucose DMEM without FBS, treated with the components noted above in DMEM without FBS/glucose for 1 hour, and glucose uptake was detected using a glucose uptake kit (Promega). The bars show (from left to right) concentrations of 100 μM, 33 μM, 11 μM, 3.7 μM, 1.23 μM, 0.41 μM, 0.14 μM, 0.045 μM, 0.015 μM, 0.005 μM, 0 μM, and insulin.
Human skeletal myoblasts were obtained (Thermofisher; BYU) and cultured in DMEM/F12 medium with 10% FBS. For differentiation, 2% horse serum low glucose DMEM medium was employed for 72 hours. Human cardiomyocytes cells (HCM cells; Promocell) were cultured in myocyte growth medium (Promocell). Human preadipocyte HWP-c cells (Promocell) were obtained from upper arm of diabetic II donor. Human preadipocyte HWP-c cells (Promocell) were obtained from abdomen of diabetic II donor. For differentiating human preadipocytes, cells were cultured in preadipocyte growth medium to total confluency stage. The growth medium was replaced with preadipocyte differentiation medium for 72 hours, then changed to PromoCell adipocyte nutrition medium to complete the differentiation process. THLE-2 cells were cultured in BEGM from Lonza/Clonetics Corporation, Walkersville, MD 21793 (BEGM Bullet Kit; CC3170). HepG2, L6 and C2Cl2 cells were cultured in EMEM medium.
After differentiation myoblasts, preadipocyte cells were starved by removing the medium and adding 100 μL DMEM without serum. The medium was then replaced with 100 μL DMEM±1 μM insulin at indicated concentration of representative compounds without serum or glucose. The cells were then incubated for 1 hour at 37° C. in 5% CO2. The cells were then removed from the medium and 50 μL of 0.1 mM 2DG in PBS was added. Cells were incubated for 30 minutes at 25° C. 25 μL of Stop Buffer was added and samples were mixed. 25 μL of Neutralization Buffer was then added and mixed. 100 μL of 2DG6P Detection Reagent was then added and mixed. Samples were then incubated for 1 hour at 25° C. Luminescence was then recorded with 0.3-1 second integration on a luminometer.

[2] = system: AMPK signal pathway in human cardiac myocytes (HCM); assay: Western blot assay, human cardiomyocytes; assay type: cell-based
[3] = system: AMPK signaling in human liver cells; assay: Western blot assay, human liver cells (Biological Example 1); assay type: cell-based
Experimental: After treatment, cells were analyzed using a glucose uptake assay and a western blot assay for human skeletal myoblasts, human cardiomyocytes cells, human hepatocytes-THLE-2 cells, preadipocyte HWP-c cells.
(§1) Samples for immunoblotting studies were prepared for electrophoresis by adding in a final concentration of 1× Laemmli loading buffer (supplemented with 5% 2-mercaptoethanol). Samples were then electrophorized by SDS-PAGE (4-15% or 4-20% Criterion TGX Precast gel, Bio-Rad) at a constant voltage within the range of 140V. Proteins were transferred to a nitrocellulose membrane (Bio-Rad) using the Trans-Blot Turbo transfer system (Bio-Rad). Membranes were blocked with 5% BSA in TBST for a minimum of 1 hour at room temperature before incubating with the following primary antibodies: • Phospho-AMPKα (Thr172) (40H9) Rabbit mAb (CST, cat no: 2535S), • AMPKα Antibody (CST, cat no: 2532S) • Phospho-Raptor (Ser792) Antibody (CST, cat no: 2083S) • Raptor (24C12) Rabbit mAb (CST, cat no: 2280S) • Phospho-Acetyl-CoA Carboxylase (Ser79) Antibody (CST, cat no: 3661S) • Acetyl-CoA Carboxylase Antibody (CST, cat no: 3662S) • AMPKα2 Antibody (CST, cat no: 2757S) • AMPKβ1 antibody (CST, cat no: 12063) • AMPKβ2 Antibody (CST, CST, cat no: 4148S) • AMPKγ3 Antibody (CST, cat no: 2550S).

[4] = PK oral bioavailability experiment, mouse; assay type: in vivo, male Swiss Albino Mouse; details: 1 mg/kg intravenous, 5 mg/kg oral
Experimental: A total of 24 male Swiss albino mouse were allotted for the study, Animals were allotted to 2 groups containing 12 mice/group, on day of dosing all the animals were fasted 3 hours before dosing. The test formulation was administered as a single dose by intravenous and oral route via tail vein and oral gavage needle at a dose of 1 and 5 mg/kg with a dose volume of 5 and 10 mL/kg, respectively.
Approximately 0.1 mL of blood sample from each animal was collected via retro orbital at predetermined time points (3 animals/Timepoint) in pre-labeled Eppendorf tubes containing anticoagulant. After blood collection at 0.5 h and 1 h, after collection of CSF, whole blood was withdrawn, and brain tissue was collected as a terminal sampling. Blood samples were centrifuged at 10000 rpm for 5 min under refrigeration (2-4° C.) within 0.5 h to obtain plasma. The separated plasma samples were collected in pre labeled tubes within 60 min of separation and stored at −20° C. up to 24 h. Post 24 h sample collection, all plasma samples were transferred to deep freezer custodian to store below or at −70° C. until shipment.
Similarly, CSF and Brain were collected at 0.5 h and 1h time point by scarification. Tissues were blotted and dried and then transferred to 15 mL falcon tubes. Initially all tissue samples were stored at −20±3° C. Later all brain tissue samples were homogenized with PBS at 1:4 ratio and the brain homogenate were transferred to deep freezer (−70±10° C.) and stored.
The PK parameters were evaluated using Phoenix WinNonlin® Ent-Version 8.3 by non-compartmental analysis.

[5] = Plasma and tissue concentration in high fat diet mice, day 36; assay type: in vivo, mice (Mus musculus—C57BL-6); details: for concentration at 1 h / concentration at 3 h / concentration at 4 h: male, C57BL-6, mouse, oral
Experimental: Doses were 30 and 50 mg/kg and administered orally (p.o.) once a day (QD) for 36 days. Dose volume was 10 mL/kg, which was administered to male, 18-22-week-old mice (Mus musculus—C57BL-6) with body weight between 18-19.4 g each. Mice were grouped into 3 groups of 10. The diet for induced obesity mice were selected as a test system
Plasma lipid profile: On day 34 total cholesterol levels, triglyceride, HDL, and LDL levels were detected. Plasma insulin (fasting) and plasma NEFA (fasting) was tested on day 36. Cumulative food consumption was measured daily starting from day 1 onwards up to end of the study period. Liver, heart, jejunum, and brain tissue were collected for additional testing.

[6] = system: AMPK signal pathway in human liver cells-HepG2; assay: Western blot assay, HepG2 cells
Experimental: as §1

Question: With `O=c1[nH]c(-c2c[nH]c3cc(F)c(-c4ccc(C5(O)CCC5)cc4)c(F)c23)no1` [Compound I-11, 3-(4,6-difluoro-5-(4-(1-hydroxycyclobutyl)phenyl)-1H-indol-3-yl)-1,2,4-oxadiazol-5(4H)-one] as the compound, how does the glucose uptake [1] read?
Answer: Its glucose uptake is “induced glucose uptake; also recorded: dosage-dependent manner”.

Question: What about the “p-ACC/p-AMPK and AMPKα2β2γ3 expression” value [2] of the same compound?
Answer: The value was “did not activate”.

Question: And the AMPK signaling activation [3]?
Answer: The AMPK signaling activation was “dose-dependent manner”.

Question: What about the clearance [4] of the same compound?
Answer: The clearance was “low clearance”.

Question: What about the elimination [4] of the same compound?
Answer: Its elimination is “biphasic elimination”.

Question: And the systemic exposure [4]?
Answer: Its systemic exposure is “moderate systemic exposure”.

Question: What about the “Brain (ng/mL)” value ([5]; 30 mg/kg, 1 hr) of the same compound?
Answer: Its value is “BLQ”.

Question: And the “Brain (ng/mL)” value ([5]; 30 mg/kg, 3 hr)?
Answer: Its value is “BLQ”.

Question: And the “Skeletal muscle (ng/mL)” value ([5]; 30 mg/kg, 3 hr)?
Answer: The value was “BLQ”.

Question: What about the “Brain (ng/mL)” value ([5]; 50 mg/kg, 1 hr) of the same compound?
Answer: Its value is “BLQ”.

Question: What about the “Skeletal muscle (ng/mL)” value ([5]; 50 mg/kg, 1 hr) of the same compound?
Answer: Its value is “BLQ”.

Question: What about the “Brain (ng/mL)” value ([5]; 50 mg/kg, 3 hr) of the same compound?
Answer: The value was “BLQ”.

Question: And the “Skeletal muscle (ng/mL)” value ([5]; 50 mg/kg, 3 hr)?
Answer: Its value is “BLQ”.

Question: What about the “Brain (ng/mL)” value ([5]; 50 mg/kg, 4 hr) of the same compound?
Answer: The value was “BLQ”.

Question: And the “Skeletal muscle (ng/mL)” value ([5]; 50 mg/kg, 4 hr)?
Answer: The value was “BLQ”.

Question: And the concentration at 1 h ([5]; adipose tissue (abdominal fat), 30 mg/kg, 1 hr, read-out: Adipose tissue (abdominal fat))?
Answer: The concentration at 1 h was 57 ng/mL.

Question: And the concentration at 3 h ([5]; adipose tissue (abdominal fat), 30 mg/kg, 3 hr, read-out: Adipose tissue (abdominal fat))?
Answer: Its concentration at 3 h is 23 ng/mL.

Question: What about the concentration at 4 h ([5]; adipose tissue (abdominal fat), 30 mg/kg, 4 hr, read-out: Adipose tissue (abdominal fat)) of the same compound?
Answer: Its concentration at 4 h is 38 ng/mL.

Question: What about the concentration at 1 h ([5]; adipose tissue (abdominal fat), 50 mg/kg, 1 hr, read-out: Adipose tissue (abdominal fat)) of the same compound?
Answer: Its concentration at 1 h is 2000 ng/mL.

Question: And the concentration at 3 h ([5]; adipose tissue (abdominal fat), 50 mg/kg, 3 hr, read-out: Adipose tissue (abdominal fat))?
Answer: Its concentration at 3 h is 1590 ng/mL.

Question: What about the concentration at 4 h ([5]; adipose tissue (abdominal fat), 50 mg/kg, 4 hr, read-out: Adipose tissue (abdominal fat)) of the same compound?
Answer: Its concentration at 4 h is 1760 ng/mL.

Question: And the concentration at 4 h ([5]; brain, 30 mg/kg, 4 hr, read-out: Brain)?
Answer: Its concentration at 4 h is 6 ng/mL.

Question: And the concentration at 1 h ([5]; heart, 30 mg/kg, 1 hr, read-out: Heart)?
Answer: Its concentration at 1 h is 103 ng/mL.

Question: What about the concentration at 3 h ([5]; heart, 30 mg/kg, 3 hr, read-out: Heart) of the same compound?
Answer: The concentration at 3 h was 32 ng/mL.

Question: What about the concentration at 4 h ([5]; heart, 30 mg/kg, 4 hr, read-out: Heart) of the same compound?
Answer: Its concentration at 4 h is 31 ng/mL.

Question: And the concentration at 1 h ([5]; heart, 50 mg/kg, 1 hr, read-out: Heart)?
Answer: The concentration at 1 h was 52 ng/mL.

Question: And the concentration at 3 h ([5]; heart, 50 mg/kg, 3 hr, read-out: Heart)?
Answer: Its concentration at 3 h is 36 ng/mL.

Question: And the concentration at 4 h ([5]; heart, 50 mg/kg, 4 hr, read-out: Heart)?
Answer: The concentration at 4 h was 102 ng/mL.

Question: And the concentration at 1 h ([5]; jejunum, 30 mg/kg, 1 hr, read-out: Jejunum)?
Answer: The concentration at 1 h was 124000 ng/mL.

Question: What about the concentration at 3 h ([5]; jejunum, 30 mg/kg, 3 hr, read-out: Jejunum) of the same compound?
Answer: The concentration at 3 h was 35 ng/mL.

Question: And the concentration at 4 h ([5]; jejunum, 30 mg/kg, 4 hr, read-out: Jejunum)?
Answer: The concentration at 4 h was 27 ng/mL.

Question: What about the concentration at 1 h ([5]; jejunum, 50 mg/kg, 1 hr, read-out: Jejunum) of the same compound?
Answer: The concentration at 1 h was 4390 ng/mL.

Question: What about the concentration at 3 h ([5]; jejunum, 50 mg/kg, 3 hr, read-out: Jejunum) of the same compound?
Answer: Its concentration at 3 h is 165 ng/mL.

Question: And the concentration at 4 h ([5]; jejunum, 50 mg/kg, 4 hr, read-out: Jejunum)?
Answer: Its concentration at 4 h is 55 ng/mL.

Question: And the concentration at 1 h ([5]; liver, 30 mg/kg, 1 hr, read-out: Liver)?
Answer: Its concentration at 1 h is 118 ng/mL.

Question: And the concentration at 3 h ([5]; liver, 30 mg/kg, 3 hr, read-out: Liver)?
Answer: Its concentration at 3 h is 74 ng/mL.

Question: And the concentration at 4 h ([5]; liver, 30 mg/kg, 4 hr, read-out: Liver)?
Answer: Its concentration at 4 h is 106 ng/mL.

Question: And the concentration at 1 h ([5]; liver, 50 mg/kg, 1 hr, read-out: Liver)?
Answer: The concentration at 1 h was 80 ng/mL.

Question: What about the concentration at 3 h ([5]; liver, 50 mg/kg, 3 hr, read-out: Liver) of the same compound?
Answer: The concentration at 3 h was 64 ng/mL.

Question: What about the concentration at 4 h ([5]; liver, 50 mg/kg, 4 hr, read-out: Liver) of the same compound?
Answer: The concentration at 4 h was 71 ng/mL.

Question: And the concentration at 1 h ([5]; plasma, 30 mg/kg, 1 hr, read-out: Plasma)?
Answer: Its concentration at 1 h is 627 ng/mL.

Question: What about the concentration at 3 h ([5]; plasma, 30 mg/kg, 3 hr, read-out: Plasma) of the same compound?
Answer: Its concentration at 3 h is 147 ng/mL.

Question: And the concentration at 4 h ([5]; plasma, 30 mg/kg, 4 hr, read-out: Plasma)?
Answer: The concentration at 4 h was 121 ng/mL.

Question: What about the concentration at 1 h ([5]; plasma, 50 mg/kg, 1 hr, read-out: Plasma) of the same compound?
Answer: Its concentration at 1 h is 501 ng/mL.

Question: And the concentration at 3 h ([5]; plasma, 50 mg/kg, 3 hr, read-out: Plasma)?
Answer: The concentration at 3 h was 199 ng/mL.

Question: And the concentration at 4 h ([5]; plasma, 50 mg/kg, 4 hr, read-out: Plasma)?
Answer: The concentration at 4 h was 112 ng/mL.

Question: What about the concentration at 1 h ([5]; skeletal muscle, 30 mg/kg, 1 hr, read-out: Skeletal muscle) of the same compound?
Answer: Its concentration at 1 h is 287 ng/mL.

Question: And the concentration at 4 h ([5]; skeletal muscle, 30 mg/kg, 4 hr, read-out: Skeletal muscle)?
Answer: Its concentration at 4 h is 56 ng/mL.

Question: What about the “p-AMPK/p-ACC and AMPKα2β1β2γ3 activation” value [6] of the same compound?
Answer: Its value is “dosage-dependent manner”.
